Data published in ChEMBL document CHEMBL3885881, “DrugMatrix”.

Species on record: Rattus norvegicus
Test: DrugMatrix - Regimen: Daily Repeat
Type: toxicity, organism-based, Sprague-Dawley
Design: regimen Daily Repeat, gender Male, age 6-8 weeks
Settings: in vivo, po, 201 mg/kg, route oral GAVAGE, dose level High, vehicle .5 % CMC; for ABSOLUTE BASOPHIL / ABSOLUTE EOSINOPHIL / ABSOLUTE LYMPHOCYTE / ABSOLUTE MONOCYTE / ABSOLUTE SEGMENTED NEUTROPHIL / BASOPHIL / EOSINOPHIL / ERYTHROCYTE COUNT / HEMATOCRIT / HEMOGLOBIN / LEUKOCYTE COUNT / LYMPHOCYTE / MEAN CORPUSCULAR HEMOGLOBIN / MEAN CORPUSCULAR HEMOGLOBIN CONCENTRATION / MEAN CORPUSCULAR VOLUME / MONOCYTE / NEUTROPHIL / NUCLEATED RED BLOOD CELLS / PLATELET COUNT: tissue Blood; for ALANINE AMINOTRANSFERASE / ALBUMIN / ALKALINE PHOSPHATASE / ASPARTATE AMINOTRANSFERASE / BLOOD UREA NITROGEN / CARBON DIOXIDE / CHLORIDE / CHOLESTEROL / CREATINE PHOSPHOKINASE / CREATININE / GLUCOSE / LACTATE DEHYDROGENASE / LIPASE / PHOSPHORUS / POTASSIUM / SODIUM / TOTAL BILIRUBIN / TOTAL PROTEIN / URIC ACID: tissue Plasma

CCCCCCNC(=O)n1cc(F)c(=O)[nH]c1=O [CARMOFUR]
ABSOLUTE BASOPHIL (72 h, time 3 day): 0 CELLS/uL
ABSOLUTE EOSINOPHIL (72 h, time 3 day): 0 CELLS/uL
ABSOLUTE LYMPHOCYTE (72 h, time 3 day): 13152.33 CELLS/uL
ABSOLUTE MONOCYTE (72 h, time 3 day): 146.67 CELLS/uL
ABSOLUTE SEGMENTED NEUTROPHIL (72 h, time 3 day): 901 CELLS/uL
BASOPHIL (72 h, time 3 day): 0%
EOSINOPHIL (72 h, time 3 day): 0%
ERYTHROCYTE COUNT (72 h, time 3 day): 5.67 x10E6/uL
HEMATOCRIT (72 h, time 3 day): 35.7%
HEMOGLOBIN (72 h, time 3 day): 14.47 G/DL
LEUKOCYTE COUNT (72 h, time 3 day): 14.2 x10E3/uL
LYMPHOCYTE (72 h, time 3 day): 92.67%
MEAN CORPUSCULAR HEMOGLOBIN (72 h, time 3 day): 25.5 pg
MEAN CORPUSCULAR HEMOGLOBIN CONCENTRATION (72 h, time 3 day): 40.53 G/DL
MEAN CORPUSCULAR VOLUME (72 h, time 3 day): 62.97 fL
MONOCYTE (72 h, time 3 day): 1%
NEUTROPHIL (72 h, time 3 day): 6.33%
NUCLEATED RED BLOOD CELLS (72 h, time 3 day): 0 /100WBC
PLATELET COUNT (72 h, time 3 day): 1275.33 x10E3/uL
ALANINE AMINOTRANSFERASE (72 h, time 3 day): 52.67 u/L
ALBUMIN (72 h, time 3 day): 4.37 G/DL
ALKALINE PHOSPHATASE (72 h, time 3 day): 367 u/L
ASPARTATE AMINOTRANSFERASE (72 h, time 3 day): 69 u/L
BLOOD UREA NITROGEN (72 h, time 3 day): 23.33 mg/dL
CARBON DIOXIDE (72 h, time 3 day): 21 mmol/L
CHLORIDE (72 h, time 3 day): 102.33 MEQ/L
CHOLESTEROL (72 h, time 3 day): 81 mg/dL
CREATINE PHOSPHOKINASE (72 h, time 3 day): 192.67 u/L
CREATININE (72 h, time 3 day): 0.27 mg/dL
GLUCOSE (72 h, time 3 day): 160 mg/dL
LACTATE DEHYDROGENASE (72 h, time 3 day): 198.33 u/L
LIPASE (72 h, time 3 day): 9.33 u/L
PHOSPHORUS (72 h, time 3 day): 12 mg/dL
POTASSIUM (72 h, time 3 day): 6.3 MEQ/L
SODIUM (72 h, time 3 day): 145.27 MEQ/L
TOTAL BILIRUBIN (72 h, time 3 day): 0.17 mg/dL
TOTAL PROTEIN (72 h, time 3 day): 6.33 G/DL
URIC ACID (72 h, time 3 day): 1.77 mg/dL
ABSOLUTE BASOPHIL (120 h, time 5 day): 0 CELLS/uL
ABSOLUTE EOSINOPHIL (120 h, time 5 day): 0 CELLS/uL
ABSOLUTE LYMPHOCYTE (120 h, time 5 day): 4570 CELLS/uL
ABSOLUTE MONOCYTE (120 h, time 5 day): 201.5 CELLS/uL
ABSOLUTE SEGMENTED NEUTROPHIL (120 h, time 5 day): 2778.5 CELLS/uL
BASOPHIL (120 h, time 5 day): 0%
EOSINOPHIL (120 h, time 5 day): 0%
ERYTHROCYTE COUNT (120 h, time 5 day): 8.62 x10E6/uL
HEMATOCRIT (120 h, time 5 day): 52.2%
HEMOGLOBIN (120 h, time 5 day): 20.65 G/DL
LEUKOCYTE COUNT (120 h, time 5 day): 7.55 x10E3/uL
LYMPHOCYTE (120 h, time 5 day): 62.5%
MEAN CORPUSCULAR HEMOGLOBIN (120 h, time 5 day): 24 pg
MEAN CORPUSCULAR HEMOGLOBIN CONCENTRATION (120 h, time 5 day): 39.6 G/DL
MEAN CORPUSCULAR VOLUME (120 h, time 5 day): 60.55 fL
MONOCYTE (120 h, time 5 day): 2.5%
NEUTROPHIL (120 h, time 5 day): 35%
NUCLEATED RED BLOOD CELLS (120 h, time 5 day): 0 /100WBC
PLATELET COUNT (120 h, time 5 day): 1522.5 x10E3/uL
ALANINE AMINOTRANSFERASE (120 h, time 5 day): 43.5 u/L
ALBUMIN (120 h, time 5 day): 5.05 G/DL
ALKALINE PHOSPHATASE (120 h, time 5 day): 216 u/L
ASPARTATE AMINOTRANSFERASE (120 h, time 5 day): 414 u/L
BLOOD UREA NITROGEN (120 h, time 5 day): 219.5 mg/dL
CARBON DIOXIDE (120 h, time 5 day): 19 mmol/L
CHLORIDE (120 h, time 5 day): 115 MEQ/L
CHOLESTEROL (120 h, time 5 day): 78.5 mg/dL
CREATINE PHOSPHOKINASE (120 h, time 5 day): 2230 u/L
CREATININE (120 h, time 5 day): 0.29 mg/dL
GLUCOSE (120 h, time 5 day): 164 mg/dL
LACTATE DEHYDROGENASE (120 h, time 5 day): 1956 u/L
LIPASE (120 h, time 5 day): 24.5 u/L
PHOSPHORUS (120 h, time 5 day): 20.35 mg/dL
POTASSIUM (120 h, time 5 day): 5.82 MEQ/L
SODIUM (120 h, time 5 day): 154.1 MEQ/L
TOTAL BILIRUBIN (120 h, time 5 day): 0.6 mg/dL
TOTAL PROTEIN (120 h, time 5 day): 6.6 G/DL
URIC ACID (120 h, time 5 day): 4.25 mg/dL
